From patent publication US20070238711A1, “Combination Therapy with Glatiramer Acetate and Minocycline for the Treatment of Multiple Sclerosis” (priority 2004, published 2007)
Where “and” joins values, the source holds several entries; their conditions need not be identical. Identical values can stand only once.

What was measured:
severe EAE = assay: Experiment 1: low doses of glatiramer acetate and minocycline on severe EAE (MOG-induced); assay type: in vivo, C57/BL6 mice; parameters: key to EAE clinical score, individual mouse / EAE clinical score, group average (ave): composite score 0 = no symptoms, 14 = fully quadriplegic, 15 = death; key to Sum of Scores, individual mouse / Sum of Scores, group average (ave): sum of daily clinical scores (0–15 scale) over the experiment; details: for effect on clinical scores of EAE: severe EAE, sub-optimal doses, FIG. 2; for Sum of Scores, group average (ave) / Sum of Scores, individual mouse: sum of daily clinical scores over the entire experiment; for effect on disease severity: summary of Experiments 1-2, sub-optimal doses
Description: Intraperitoneal pertussis toxin was given on the day of MOG administration and also 2 days after. FIG. 1 presents a layout of the experimental design. Minocycline was administered intraperitoneally at a sub-optimal dose (25 mg/kg) when the first mouse in the entire experiment developed signs of EAE (See FIG. 1). Minocycline was administered daily until mice were sacrificed. […] Thus, we have developed a new system in order to better differentiate functional outcomes. […] For the tail: 0—no symptoms […] For each of the hind limbs or fore limbs, each assessed separately: 0—no symptoms […] Thus, a fully paralysed quadriplegic animal would attain a score of 14. […] Death is automatically given a score of 15. Another parameter that we have employed is the “sum of scores”. This refers to the addition of each daily clinical score over the entire period of the experiment. This is a reflection of the total burden of disease, and takes into account variations in onset of disease, and the daily scores.

moderate EAE = assay: Experiment 2: low doses of glatiramer acetate and minocycline on moderate EAE; assay type: in vivo, C57/BL6 mice; details: sub-optimal doses, FIG. 4
Description: The protocol of Experiment 1 was followed. […] The number of mice in each group was as follows: 8 in the vehicle group, 11 in the minocycline group, 10 in the Copaxone® group, and 9 in the combination group.

EAE [1] = assay: Experiment 3: high doses of glatiramer acetate and minocycline on EAE; assay type: in vivo, C57/BL6 mice; details: Copaxone 375 μg, minocycline 37.5 mg/kg
Description: The effects of all treatments versus the control are analyzed histologically (hematoxylin-eosin and Luxol fast blue for evidence of inflammation and demyelination, respectively). Cellular infiltrates are characterized by CD3, CD4, CD8, CD56 and CD19 immunohistochemistry. Blind evaluation (on a qualitative scale from + to ++++) is conducted on the following: the density of perivascular infiltrates, the distance of migration of leukocytes into the CNS parenchyma from blood vessels, and the degree of demyelination. The neuropathological assessments are focused on the optic nerve, lumbar cord and brainstem.

EAE [2] = details: cited from earlier work
T lymphocytes = details: previous observation; cited from earlier work
multiple sclerosis = details: daily subcutaneous injections, 20 mg/injection; cited from earlier work
R-R MS = details: versus placebo, 9-month trial; cited from earlier work
[3] = Day 0, 15-point scale, Copaxone 250 μg, minocycline 25 mg/kg i.p.

| Molecule | EAE clinical score, group average (ave) (severe EAE; Day 0) | EAE clinical score, individual mouse (severe EAE; [3]) | EAE clinical score, group average (ave) (severe EAE; Day 9) | EAE clinical score, individual mouse (severe EAE; Day 9) | EAE clinical score, group average (ave) (severe EAE; Day 10) | EAE clinical score, individual mouse (severe EAE; Day 10) | EAE clinical score, group average (ave) (severe EAE; Day 11) | EAE clinical score, individual mouse (severe EAE; Day 11) | EAE clinical score, group average (ave) (severe EAE; Day 12) | EAE clinical score, individual mouse (severe EAE; Day 12) | EAE clinical score, group average (ave) (severe EAE; Day 13) | EAE clinical score, individual mouse (severe EAE; Day 13) | EAE clinical score, group average (ave) (severe EAE; Day 14) | EAE clinical score, individual mouse (severe EAE; Day 14) | EAE clinical score, group average (ave) (severe EAE; Day 15) | EAE clinical score, individual mouse (severe EAE; Day 15) | EAE clinical score, group average (ave) (severe EAE; Day 16) | EAE clinical score, individual mouse (severe EAE; Day 16) | EAE clinical score, group average (ave) (severe EAE; Day 17) | EAE clinical score, individual mouse (severe EAE; Day 17) | also measured |
| --- | --- | --- | --- | --- | --- | --- | --- | --- | --- | --- | --- | --- | --- | --- | --- | --- | --- | --- | --- | --- | --- |
| CN(C)c1ccc(O)c2c1C[C@H]1C[C@H]3[C@H](N(C)C)C(O)=C(C(N)=O)C(=O)[C@@]3(O)C(O)=C1C2=O [Minocycline, [4S-(4∝,4a∝,5a∝,12a∝)]-4,7-bis(dimethylamino)-1,4,4a,5,5a,6,11,12a-octahydro-3,10,12,12a-tetrahydroxy-1,11-dioxo-2-naphthacenecarboxamide] | 0 | 0 | 4 | 3 (2×) and 4 (7×) | 4 | 4 (6×) and 6 (2×) and 3 | 6 | 8 and 5 and 6 (2×) and 7 (4×) and 4 | 7 | 7 (2×) and 6 and 9 and 8 (4×) and 4 | 8 | 7 and 9 (6×) and 4 and 10 | 9 | 8 (2×) and 10 (5×) and 4 and 9 | 9 | 11 and 10 (5×) and 9 and 4 and 6 | 9 | 11 and 10 (3×) and 8 (3×) and 9 and 3 | 8 | 10 (2×) and 8 (2×) | EAE clinical score, group average (ave) (severe EAE; Day 18): 8; EAE clinical score, individual mouse (severe EAE; Day 18): 11 (2×) and 6; EAE clinical score, group average (ave) (severe EAE; Day 19): 7; EAE clinical score, individual mouse (severe EAE; Day 19): 8 and 11 and 6; EAE clinical score, group average (ave) (severe EAE; Day 20): 7; EAE clinical score, individual mouse (severe EAE; Day 20): 8 and 11 and 5; EAE clinical score, group average (ave) (severe EAE; Day 21): 7; EAE clinical score, individual mouse (severe EAE; Day 21): 7 and 9 and 5; EAE clinical score, group average (ave) (severe EAE; Day 22): 7; EAE clinical score, individual mouse (severe EAE; Day 22): 9 (2×) and 5; effect on clinical scores of EAE (severe EAE): ineffective; Sum of Scores, group average (ave) (severe EAE): 102.3; Sum of Scores, individual mouse (severe EAE): 112 and 121 and 93 and 109 (2×) and 55 and 102 and 122 and 98; effect on disease severity (severe EAE): did not markedly decrease disease severity; effect on EAE severity / disease course (moderate EAE): did not elicit a clinical response; effect on disease severity (EAE [1]): significantly decreases disease severity; disease activity (EAE [2]; chronic relapsing remitting EAE): dramatically suppress disease activity; severity of disease (EAE [2]; mild EAE): attenuate the severity; course of disease (EAE [2]; severe EAE): delay the course |
| L-glutamic acid polymer with L-alanine, L-lysine and L-tyrosine, acetate (salt) [Copaxone ®] | 0 | 0 | 1 | 0 (7×) and 3 and 2 | 1 | 0 (5×) and 3 (2×) and 1 and 2 | 3 | 0 (3×) and 4 (2×) and 7 and 8 and 2 and 6 | 4 | 0 (2×) and 5 (2×) and 7 (2×) and 2 and 6 and 8 | 6 | 0 (2×) and 9 (3×) and 5 and 8 (2×) and 7 | 7 | 3 and 8 (5×) and 10 and 0 and 6 | 8 | 4 and 10 (6×) and 0 and 8 | 7 | 8 (4×) and 10 (2×) and 11 and 0 and 3 | 7 | 8 (2×) and 10 (2×) | EAE clinical score, group average (ave) (severe EAE; Day 18): 7; EAE clinical score, individual mouse (severe EAE; Day 18): 9 and 8 and 10; EAE clinical score, group average (ave) (severe EAE; Day 19): 7; EAE clinical score, individual mouse (severe EAE; Day 19): 7 and 8 and 12; EAE clinical score, group average (ave) (severe EAE; Day 20): 6; EAE clinical score, individual mouse (severe EAE; Day 20): 5 and 8 and 11; EAE clinical score, group average (ave) (severe EAE; Day 21): 6; EAE clinical score, individual mouse (severe EAE; Day 21): 7 (2×) and 9; EAE clinical score, group average (ave) (severe EAE; Day 22): 6; EAE clinical score, individual mouse (severe EAE; Day 22): 5 (2×) and 9; effect on clinical scores of EAE (severe EAE): slight benefit; Sum of Scores, group average (ave) (severe EAE): 75.56; Sum of Scores, individual mouse (severe EAE): 56 and 88 and 117 and 95 and 0 and 100 and 87 (2×) and 50; effect on disease severity (severe EAE): did not markedly decrease disease severity; effect on EAE severity / disease course (moderate EAE): slight attenuation of disease course; effect on disease severity (EAE [1]): significantly decreases disease severity; efficacy previously observed in the T cell transmigration assay (T lymphocytes): lack of efficacy; relapse rates, progression of disability, new MRI lesions, black holes (multiple sclerosis): reduce relapse rates; gadolinium-enhancing lesions progressing to persistent black holes (R-R MS): significantly fewer |
